Results from patent publication US20030083239A1, “Chemokine receptor CCR3 antagonists” (priority 1999, published 2003).
Like-named read-outs stand apart in the source and are kept apart here. Ends that are not written are not given here. Peptide text beside a SMILES is read from it.

B1: hexamer peptide CRCAAR (SEQ ID NO: 1), peptide SC004411 (peptide)
peptide: CRCAAR
modifications: not fully specified; cysteine pairing not given here
notes: Synthetic hexapeptide; also called compound SC004411

Key:
human eosinophils [1] = assay type: cell-based
Description: Human eosinophils were prepared by isolation from the blood of donor individuals with high levels of circulating blood eosinophils (5-17%) by combining density gradient centrifugation and negative selection with anti-CD16 magnetic beads. Briefly, the granulocyte fraction from the Percoll centrifugation was incubated with CD16 micro beads (miniMACS™, separation unit) for 30 minutes. Cells were then passed through a MACS™ column (Miltenyi Biotec, Inc., Auburn, Calif.) and eosinophils were collected in the flow through. Eosinophil purity was >98% as determined by analysis of Diff-Quik™ (Baxter) stained cytocentrifugation preparations by light microscopy. Leukocyte chemotaxis was assessed on eosinophils, using a modification of a transendothelial assay. The endothelial cells used in this assay were the endothelial cell line, ECV 304, obtained from the European collection of Animal Cell Cultures (Porton Downs, Salisbury, U.K.). Endothelial cells were cultured on 6.5 mm diameter Transwell™ culture inserts (Costar Corp., Cambridge, Mass.) with 3.0 μm pore size. The assay media consisted of equal parts RPMI 1640 and M199 with 0.5% BSA. […] The cells that had migrated to the bottom chamber were counted using flow cytometry. […] Inhibitor potency was determined by comparison of cell numbers migrated to the bottom chamber, with or without inhibitor. […]

human eosinophils [2] = assay: Cytotoxicity, lysis of 51Cr-labeled cells; assay type: cell-based; settings: cells cultured in presence of the peptide
Description: To exclude the possible contribution of cytotoxicity of the hexapeptides to the inhibition of eosinophil function, ^51Cr-labeled cells were cultured in presence of the peptide for the indicated time.

human eosinophils [3] = assay type: cell-based; remark: listed apart in the source
human eosinophils [4] = assay type: cell-based; remark: listed apart in the source
Description: Human eosinophils were prepared by isolation from the blood of donor individuals with high levels of circulating blood eosinophils (5-17%) by combining density gradient centrifugation and negative selection with anti-CD16 magnetic beads. Briefly, the granulocyte fraction from the Percoll centrifugation was incubated with CD16 micro beads (miniMACS™, separation unit) for 30 minutes. Cells were then passed through a MACS™ column (Miltenyi Biotec, Inc., Auburn, Calif.) and eosinophils were collected in the flow through. Eosinophil purity was >98% as determined by analysis of Diff-Quik™ (Baxter) stained cytocentrifugation preparations by light microscopy. Intracellular free calcium was measured using the fluorescent probe Fluo-3. Cell suspensions (10^7 cells/ml) were loaded with Fluo-3/AM (1 μM, 30 minutes at 37° C), washed, resuspended at 2×10^6 cells/ml in Hanks' balanced salt solution (HBSS) and their fluorescence monitored in a spectrofluorometer (SLM 8000, SLM-Aminco, Champagne, Ill., USA) (excitation and emission wavelengths, 500 and 530 nm, respectively) The internal calcium concentrations were calculated as described in Tsien et al. (J. Cell. Biol. 94: 3325-3334, 1982). Each assay was individually calibrated.

CCR3 = biological target: T1, CCR3 (Homo sapiens, UniProt P51677); assay: Binding specificity, CCR3 transfected in 293 cells; settings: CCR3 transfected 293 cells; peptide at 10 μM (FIG. 4 legend)
T1 construct: expressed in transfected cells; host or cells: 293 cells
T1 sequence (P51677 1-355): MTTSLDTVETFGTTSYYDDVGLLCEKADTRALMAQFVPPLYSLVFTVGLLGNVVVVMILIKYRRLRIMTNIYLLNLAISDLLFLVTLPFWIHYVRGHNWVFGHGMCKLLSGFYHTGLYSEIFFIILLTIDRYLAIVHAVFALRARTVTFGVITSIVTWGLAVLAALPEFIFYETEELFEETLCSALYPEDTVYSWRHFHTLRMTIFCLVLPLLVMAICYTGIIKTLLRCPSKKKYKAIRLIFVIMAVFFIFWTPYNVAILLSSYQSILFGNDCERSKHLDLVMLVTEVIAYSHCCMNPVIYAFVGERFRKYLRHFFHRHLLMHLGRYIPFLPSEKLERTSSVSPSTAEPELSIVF
Description: (§1) Chemokine binding to the target cells, human eosinophils and 293/CCR3 cells, was carried out using a modification of a method previously reported. Cells were washed once in PBS and resuspended in binding buffer (50 mM HEPES, 1 mM CaCl2, 5 mM MgCl2, and 0.5% BSA) at a concentration of 1×10^7/mL. Aliquots of 50 μL (5×10^5 cells) were dispensed into microfuge tubes, followed by the addition of cold and radiolabeled chemokines. The final reaction volume was 200 μL. Nonspecific binding was determined by incubating cells with radiolabeled chemokines in the presence of increasing amounts of (250-500 nM) of cold chemokine. After 60-min incubation, at room temperature, the cells were washed three times with 1 ml of binding buffer plus 0.5 M NaCl. Cell pellets were then counted. All experiments were carried out using duplicates and repeated at least three times. Curve fit was calculated by Kaleidagraph™ software (Synergy Software, Reading, Pa.). Inhibition of binding was assessed by the addition of test inhibitor compound at the indicated concentrations, and incubation for 30 min prior to addition of the chemokine as above.
(§2) The compound was used in the binding assay to compete with CXCR4, CXCR2, CCR2, and CCR3 transfected in 293 cells. […] The data are representative of three independent experiments.

CXCR4 = biological target: T2, CXCR4 (Homo sapiens, UniProt P61073); assay: Binding specificity, CXCR4 transfected in 293 cells; settings: CXCR4 transfected 293 cells; peptide at 10 μM (FIG. 4 legend)
T2 construct: expressed in transfected cells; host or cells: 293 cells
T2 sequence (P61073 whole entry, species assumed): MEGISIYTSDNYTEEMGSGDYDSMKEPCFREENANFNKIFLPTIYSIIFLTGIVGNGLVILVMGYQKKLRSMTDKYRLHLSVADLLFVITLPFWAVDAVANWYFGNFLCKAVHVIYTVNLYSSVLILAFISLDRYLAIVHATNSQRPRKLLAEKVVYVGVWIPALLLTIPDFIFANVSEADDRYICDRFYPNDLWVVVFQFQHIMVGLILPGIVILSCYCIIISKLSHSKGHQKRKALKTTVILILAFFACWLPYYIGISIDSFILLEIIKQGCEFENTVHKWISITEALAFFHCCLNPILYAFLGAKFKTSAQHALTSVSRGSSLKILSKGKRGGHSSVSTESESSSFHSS
Description: as §1, §2

CCR2 = biological target: T3, CCR2 (Homo sapiens, UniProt P41597); assay: Binding specificity, CCR2 transfected in 293 cells; settings: CCR2 transfected 293 cells; peptide at 10 μM (FIG. 4 legend)
T3 construct: expressed in transfected cells; host or cells: 293 cells
T3 sequence (P41597 whole entry, species assumed): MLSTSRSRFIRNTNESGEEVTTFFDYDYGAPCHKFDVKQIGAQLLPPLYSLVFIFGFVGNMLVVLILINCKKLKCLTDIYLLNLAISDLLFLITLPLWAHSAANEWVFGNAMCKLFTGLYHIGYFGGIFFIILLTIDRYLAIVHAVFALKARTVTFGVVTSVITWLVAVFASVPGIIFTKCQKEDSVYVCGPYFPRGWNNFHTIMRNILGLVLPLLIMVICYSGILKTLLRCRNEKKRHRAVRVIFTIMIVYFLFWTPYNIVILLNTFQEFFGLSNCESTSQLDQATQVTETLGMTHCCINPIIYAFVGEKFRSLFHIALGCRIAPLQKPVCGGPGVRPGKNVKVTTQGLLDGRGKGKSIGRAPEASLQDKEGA
Description: as §1, §2

CXCR2 = biological target: T4, CXCR2 (Homo sapiens, UniProt P25025); assay: Binding specificity, CXCR2 transfected in 293 cells; settings: CXCR2 transfected 293 cells; peptide at 10 μM (FIG. 4 legend)
T4 construct: expressed in transfected cells; host or cells: 293 cells
T4 sequence (P25025 1-360): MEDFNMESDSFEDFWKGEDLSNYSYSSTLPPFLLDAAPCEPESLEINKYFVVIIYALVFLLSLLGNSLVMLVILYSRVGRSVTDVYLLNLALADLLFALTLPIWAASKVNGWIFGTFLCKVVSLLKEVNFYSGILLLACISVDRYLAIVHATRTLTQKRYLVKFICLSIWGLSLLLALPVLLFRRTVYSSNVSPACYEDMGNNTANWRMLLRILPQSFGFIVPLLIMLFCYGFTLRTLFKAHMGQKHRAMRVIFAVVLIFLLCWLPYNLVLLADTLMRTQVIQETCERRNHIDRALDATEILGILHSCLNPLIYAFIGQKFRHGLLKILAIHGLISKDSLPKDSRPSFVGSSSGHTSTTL
Description: as §1, §2

human eosinophils [5] = assay: Cell viability by MTT incorporation; assay type: cell-based; settings: after 24 hours
Description: In FIG. 5, cell viability in presence of SC004411 was assayed with MTT incorporation. […] The data are representative of three independent experiments.

[6] = biological target: T5, CCR3 on human eosinophils (human, UniProt P51677 1-355); assay: cell-based or functional assay
T5 sequence (looked up): T1 sequence (P51677 1-355)

[7] = biological target: T5, CCR3 on human eosinophils; assay: competition with 125I-eotaxin (0.3 nM) for CCR3 on human eosinophils, filtration radioligand assay

Row | Molecule | IC50 (human eosinophils [1]) | cell lysis of 51Cr-labeled human eosinophils (human eosinophils [2]) | toxicity by Trypan Blue exclusion (human eosinophils [3]) | IC50 (human eosinophils [4]) | inhibition of eotaxin-binding to CCR3 (CCR3) | inhibition of binding to CXCR4 (CXCR4) | inhibition of binding to CCR2 (CCR2) | inhibition of binding to CXCR2 (CXCR2) | concentration at which the compound starts to be toxic (MTT viability) (human eosinophils [5]) | inhibition of eotaxin-induced calcium mobilization of human eosinophils (functional IC50) [6] | inhibition of eotaxin-induced chemotaxis of human eosinophils (functional IC50) [6] | IC50 [7]
1 | CC(=O)N[C@@H](CS)C(=O)N[C@@H](CCCNC(=N)N)C(=O)N[C@@H](CS)C(=O)N[C@@H](C)C(=O)N[C@@H](C)C(=O)N[C@@H](CCCNC(=N)N)C(N)=O [SC004411, CRCAAR] (Ac-CRCAAR-NH2; N-terminus and C-terminus assumed) | ~20 µM | did not cause cell lysis | not toxic | ~40 µM | specifically inhibited | not | not | not | above 100 μM |  |  | 
2 | B1 |  |  |  |  |  |  |  |  |  | ~40 µM | ~20 µM | ~40 µM
